{
  "source": "patent EP4635951A1",
  "about": "“SALT-TYPE GLP-1 RECEPTOR AGONIST, CRYSTAL FORM THEREOF, PREPARATION METHOD THEREFOR, PHARMACEUTICAL COMPOSITION THEREOF, AND USE THEREOF” (Hangzhou Zhongmeihuadong Pharmaceutical Co., Ltd., priority 2022, dated 2024)",
  "key": {"Equilibrium solubility": {"test": "Equilibrium solubility", "format": "physicochemical", "conditions": "37°C", "description": "After 24 hours, samples were taken. The samples were centrifuged for separation, and the supernatant after filtration was used for solubility determination."}, "Hygroscopicity by DVS": {"test": "Hygroscopicity by DVS", "format": "physicochemical", "conditions": "25°C, 80%RH"}, "Human GLP-1R": {"target": "T1, Human GLP-1R (Homo sapiens, UniProt P43220)", "T1 construct": "expressed in transfected cells; host or cells: 293A cells stably expressing GLP-1R-GFP", "T1 sequence (P43220 24-463)": "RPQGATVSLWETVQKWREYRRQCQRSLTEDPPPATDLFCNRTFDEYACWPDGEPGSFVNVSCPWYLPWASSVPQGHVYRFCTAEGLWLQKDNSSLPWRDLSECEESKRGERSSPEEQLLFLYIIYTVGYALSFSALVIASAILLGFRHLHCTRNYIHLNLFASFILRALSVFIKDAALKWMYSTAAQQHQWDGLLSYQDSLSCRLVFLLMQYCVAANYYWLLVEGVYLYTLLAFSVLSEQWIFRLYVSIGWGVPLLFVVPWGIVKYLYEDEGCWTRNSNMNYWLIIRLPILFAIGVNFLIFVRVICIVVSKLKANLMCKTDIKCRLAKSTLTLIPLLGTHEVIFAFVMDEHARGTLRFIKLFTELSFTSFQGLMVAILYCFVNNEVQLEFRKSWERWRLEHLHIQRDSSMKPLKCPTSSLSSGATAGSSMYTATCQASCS", "test": "GLP-1R agonistic activity, HTRF cAMP assay in 293A GFP-GLP-1R cells", "format": "cell-based", "conditions": "result in words", "from_the_text": "The method was a competitive immunoassay."}, "Dynamic solubility": {"test": "Dynamic solubility", "conditions": "for Dynamic solubility in water: 37°C±2°C"}, "[1]": {"test": "Solid-state stability, long-term and accelerated conditions", "format": "physicochemical", "conditions": "for Purity / purity decrease: 10 days", "from_the_text": "The free Compound I was in a crystalline form, and had the XRPD pattern indicated by the arrow in Figure 50."}, "Pressure stability": {"test": "Pressure stability", "format": "physicochemical"}, "High-humidity stability": {"test": "High-humidity stability", "format": "physicochemical"}, "[2]": {"test": "Water activity stability of crystal form", "format": "physicochemical"}, "[3]": {"test": "High-temperature stability test", "format": "physicochemical"}, "[4]": {"test": "Suspension competition tests between Crystal Form A and Crystal Form P", "format": "physicochemical", "conditions": "room temperature and 50°C", "description": "The suspensions of Compound Z that had been equilibrated for 2 hours under the corresponding temperature and solvent conditions were filtered to obtain saturated solutions of Compound Z under different temperature and solvent conditions, and then solid mixtures of Crystal Forms A and P of Compound Z were added. After the suspension competition was carried out for 1 day, the solids were separated for XRPD characterization."}, "[5]": {"conditions": "listed as Compound I in the amorphous form"}, "[6]": {"conditions": "FaSSGF, 37 °C, fassgf or other biorelevant, thermodynamic from solid"}, "[7]": {"conditions": "fassif, 37 °C, thermodynamic from solid"}},
  "data": [
    {"compound": "O=C(O)c1ccc2nc(CN3CCC(c4cccc(OCc5ccc(C6COC6)cc5F)n4)CC3)n(C[C@@H]3CCO3)c2c1", "note": "[Amorphous form of Compound I]", "values": [
      {"measurement": "solubility thermodynamic at 24 h", "setting": "Equilibrium solubility; fassif, FaSSIF (fasted-state simulated intestinal fluid)", "result": 150, "unit": "µg/mL"},
      {"measurement": "solubility thermodynamic at 24 h", "setting": "Equilibrium solubility; fessif, FeSSIF (fed-state simulated intestinal fluid)", "result": 800, "unit": "µg/mL"},
      {"measurement": "solubility thermodynamic at 24 h", "setting": "Equilibrium solubility; purified water, H2O (purified water)", "result": 430, "unit": "µg/mL"},
      {"measurement": "solubility thermodynamic at 24 h", "setting": "Equilibrium solubility; sgf (simulated gastric fluid)", "result": 410, "unit": "µg/mL"},
      {"measurement": "hygroscopicity class", "setting": "Hygroscopicity by DVS; [5]", "result": "hygroscopic (a weight gain of 2%-15% indicates hygroscopic)"},
      {"measurement": "weight gain (water absorbed)", "setting": "Hygroscopicity by DVS; [5]", "result": 4.029, "unit": "%"}
    ]},
    {"compound": "O=C(O)c1ccc2nc(CN3CCC(c4cccc(OCc5ccc(C6COC6)cc5F)n4)CC3)n(C[C@@H]3CCO3)c2c1", "note": "[Compound I, (S)-2-((4-(6-((2-fluoro-4-(oxetan-3-yl)benzyl)oxy)pyridin-2-yl)piperidin-1-yl)methyl)-1-(oxetan-2-ylmethyl)-1H-benzo[d]imidazole-6-carboxylic acid]", "values": [
      {"measurement": "solubility at 1 h", "setting": "physchem; [6]", "result": 100, "unit": "µg/mL"},
      {"measurement": "solubility at 2 h", "setting": "physchem; [6]", "result": 90, "unit": "µg/mL"},
      {"measurement": "solubility at 4 h", "setting": "physchem; [6]", "result": 110, "unit": "µg/mL"},
      {"measurement": "solubility at 24 h", "setting": "physchem; [6]", "result": 100, "unit": "µg/mL"},
      {"measurement": "solubility at 1 h", "setting": "physchem; [7]", "result": 40, "unit": "µg/mL"},
      {"measurement": "solubility at 4 h", "setting": "physchem; [7]", "result": 120, "unit": "µg/mL"},
      {"measurement": "solubility at 24 h", "setting": "physchem; [7]", "result": 210, "unit": "µg/mL"},
      {"measurement": "agonistic effect on GLP-1R", "setting": "Human GLP-1R", "result": "strong agonistic effect"},
      {"measurement": "XRPD of Residual Solid", "setting": "Dynamic solubility; FaSSGF, 1 h, listed as Free Compound I", "result": "Crystal Form A of the hydrochloride of Compound I"},
      {"measurement": "XRPD of Residual Solid", "setting": "Dynamic solubility; FaSSGF, 2 h, listed as Free Compound I", "result": "Crystal Form A of the hydrochloride of Compound I"},
      {"measurement": "Whether the crystal form changed", "setting": "Dynamic solubility; FaSSIF, 2 h", "result": "YES"},
      {"measurement": "XRPD of Residual Solid", "setting": "Dynamic solubility; FaSSIF, 2 h", "result": "Crystal Form A of Compound I"},
      {"measurement": "Dynamic solubility in water", "setting": "Dynamic solubility; FaSSIF, 2 h, listed as Free Compound I", "result": 70, "unit": "µg/mL"},
      {"measurement": "Whether the crystal form changed", "setting": "Dynamic solubility; FaSSIF, 4 h", "result": "YES"},
      {"measurement": "XRPD of Residual Solid", "setting": "Dynamic solubility; FaSSIF, 4 h", "result": "Crystal Form A of Compound I"},
      {"measurement": "Whether the crystal form changed", "setting": "Dynamic solubility; FaSSIF, 24 h", "result": "YES"},
      {"measurement": "XRPD of Residual Solid", "setting": "Dynamic solubility; FaSSIF, 24 h", "result": "Crystal Form A of Compound I"},
      {"measurement": "Whether the crystal form changed", "setting": "Dynamic solubility; H2O (water), 1 h", "result": "YES"},
      {"measurement": "XRPD of Residual Solid", "setting": "Dynamic solubility; H2O (water), 1 h", "result": "Crystal Form A of Compound I"},
      {"measurement": "Dynamic solubility in water", "setting": "Dynamic solubility; H2O (water), 4 h, listed as Free Compound I", "result": 30, "unit": "µg/mL"},
      {"measurement": "Dynamic solubility in water", "setting": "Dynamic solubility; H2O (water), 24 h, listed as Free Compound I", "result": 30, "unit": "µg/mL"}
    ]},
    {"compound": "O=C(O)c1ccc2nc(CN3CCC(c4cccc(OCc5ccc(C6COC6)cc5F)n4)CC3)n(C[C@@H]3CCO3)c2c1", "note": "[Crystal Form A of Compound Z]", "values": [
      {"measurement": "Purity", "setting": "[1]; 25°C/60%RH", "result": 97.38, "unit": "% Area"},
      {"measurement": "Purity", "setting": "[1]; 40°C/75%RH", "result": 97.35, "unit": "% Area"},
      {"measurement": "initial purity", "setting": "[1]; HPLC, before storage", "result": 97.41, "unit": "% Area"},
      {"measurement": "purity decrease", "setting": "[1]; accelerated conditions (40°C/75%RH)", "result": "no obvious decrease"},
      {"measurement": "purity decrease", "setting": "[1]; long-term conditions (25°C/60%RH)", "result": "no obvious decrease"},
      {"measurement": "purity decrease", "setting": "Pressure stability; 1000 Mpa, 5 minutes", "result": "no obvious decrease"},
      {"measurement": "initial purity", "setting": "Pressure stability; HPLC purity (% area), before pressing", "result": 97.31, "unit": "%"},
      {"measurement": "solubility at 1 h", "setting": "physchem; [6]", "result": 40, "unit": "µg/mL"},
      {"measurement": "solubility at 2 h", "setting": "physchem; [6]", "result": 140, "unit": "µg/mL"},
      {"measurement": "solubility at 4 h", "setting": "physchem; [6]", "result": 120, "unit": "µg/mL"},
      {"measurement": "solubility at 2 h", "setting": "physchem; fassif", "result": 130, "unit": "µg/mL"},
      {"measurement": "solubility at 1 h", "setting": "physchem; [7]", "result": 130, "unit": "µg/mL"},
      {"measurement": "solubility at 4 h", "setting": "physchem; [7]", "result": 110, "unit": "µg/mL"},
      {"measurement": "solubility at 24 h", "setting": "physchem; [7]", "result": 280, "unit": "µg/mL"},
      {"measurement": "solubility at 1 h", "setting": "physchem; water", "result": 5500, "unit": "µg/mL"},
      {"measurement": "solubility at 2 h", "setting": "physchem; water", "result": 1380, "unit": "µg/mL"},
      {"measurement": "solubility", "setting": "physchem; water, 37 °C, fassgf or other biorelevant, thermodynamic from solid", "result": 60, "unit": "µg/mL"},
      {"measurement": "Whether the crystal form changed", "setting": "Dynamic solubility; FaSSGF, 1 h", "result": "YES"},
      {"measurement": "XRPD of Residual Solid", "setting": "Dynamic solubility; FaSSGF, 1 h", "result": "Amorphous"},
      {"measurement": "Whether the crystal form changed", "setting": "Dynamic solubility; FaSSGF, 2 h", "result": "YES"},
      {"measurement": "XRPD of Residual Solid", "setting": "Dynamic solubility; FaSSGF, 2 h", "result": "Amorphous"},
      {"measurement": "Whether the crystal form changed", "setting": "Dynamic solubility; FaSSGF, 4 h", "result": "YES"},
      {"measurement": "XRPD of Residual Solid", "setting": "Dynamic solubility; FaSSGF, 4 h", "result": "Crystal Form A of the hydrochloride of Compound I"},
      {"measurement": "Whether the crystal form changed", "setting": "Dynamic solubility; FaSSGF, 24 h", "result": "YES"},
      {"measurement": "XRPD of Residual Solid", "setting": "Dynamic solubility; FaSSGF, 24 h", "result": "Crystal Form A of the hydrochloride of Compound I"},
      {"measurement": "Whether the crystal form changed", "setting": "Dynamic solubility; FaSSIF, 1 h", "result": "YES"},
      {"measurement": "XRPD of Residual Solid", "setting": "Dynamic solubility; FaSSIF, 1 h", "result": "Crystal Form A of Compound I"},
      {"measurement": "Whether the crystal form changed", "setting": "Dynamic solubility; H2O (water), 2 h", "result": "YES"},
      {"measurement": "XRPD of Residual Solid", "setting": "Dynamic solubility; H2O (water), 2 h", "result": "Crystal Form A of Compound I"},
      {"measurement": "Whether the crystal form changed", "setting": "Dynamic solubility; H2O (water), 4 h", "result": "YES"},
      {"measurement": "XRPD of Residual Solid", "setting": "Dynamic solubility; H2O (water), 4 h", "result": "Crystal Form A of Compound I"},
      {"measurement": "Dynamic solubility in water", "setting": "Dynamic solubility; H2O (water), 4 h, 240 min", "result": 1230, "unit": "µg/mL"},
      {"measurement": "Whether the crystal form changed", "setting": "Dynamic solubility; H2O (water), 24 h", "result": "YES"},
      {"measurement": "XRPD of Residual Solid", "setting": "Dynamic solubility; H2O (water), 24 h", "result": "Crystal Form A of Compound I"},
      {"measurement": "Dynamic solubility in water", "setting": "Dynamic solubility; H2O (water), 24 h, 1440 min", "result": 1330, "unit": "µg/mL"},
      {"measurement": "purity decrease", "setting": "High-humidity stability; 90%RH, 10 days", "result": "no obvious decrease"},
      {"measurement": "initial purity", "setting": "High-humidity stability; HPLC purity (% area), before high humidity", "result": 97.41, "unit": "%"},
      {"measurement": "solubility thermodynamic at 24 h", "setting": "Equilibrium solubility; FaSSIF (fasted-state simulated intestinal fluid)", "result": 1190, "unit": "µg/mL"},
      {"measurement": "solubility thermodynamic at 24 h", "setting": "Equilibrium solubility; FeSSIF (fed-state simulated intestinal fluid)", "result": 1170, "unit": "µg/mL"},
      {"measurement": "solubility thermodynamic at 24 h", "setting": "Equilibrium solubility; H2O (purified water)", "result": 1940, "unit": "µg/mL"},
      {"measurement": "solubility thermodynamic at 24 h", "setting": "Equilibrium solubility; SGF (simulated gastric fluid)", "result": 1000, "unit": "µg/mL"},
      {"measurement": "water activity aw at which the crystal form is stable", "setting": "[2]", "result": "≤ 0.388"},
      {"measurement": "purity decrease after 1 day", "setting": "[3]; 60°C, 1 day", "result": "no obvious decrease"},
      {"measurement": "purity after 1 day", "setting": "[3]; HPLC purity (% area), 60°C, 1 day", "result": 97.34, "unit": "%"},
      {"measurement": "initial purity", "setting": "[3]; HPLC purity (% area), before 60°C", "result": 97.41, "unit": "%"},
      {"measurement": "hygroscopicity class", "setting": "Hygroscopicity by DVS", "result": "slightly hygroscopic (a weight gain of 0.2%-2% indicates slightly hygroscopic)"},
      {"measurement": "weight gain (water absorbed)", "setting": "Hygroscopicity by DVS", "result": 1.696, "unit": "%"},
      {"measurement": "thermodynamic stability relative to Crystal Form P", "setting": "[4]", "result": "thermodynamically more stable"}
    ]}
  ]
}
